The values below come from ChEMBL document CHEMBL1201862, “PubChem BioAssay data set” (2004).

Test systems include UACC-62; UO-31; HOP-62; DU-145; MDA-MB-435; SNB-19; OVCAR-3; HOP-92; SNB-75; Hs-578T; RXF 393; EKVX; CCRF-CEM; SK-OV-3; SK-MEL-28; MDA-MB-231; ACHN; COLO 205; 786-0; PC-3.
What all share (assay): NCI tumour cell line growth inhibition, 48 h

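Growth conditions: 96-well plates. Treatment: test compound, 48 hours, 5 concentrations. Analysis: linear interpolation between bracketing concentrations; unreached endpoints set to highest concentration. GI50 is the concentration that inhibits growth by half.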 The source made the active and inactive calls. No stated cut-off is given here; in the data, active = GI50 up to about 1.1 µM and inactive = higher. Where only a bound is given, the exact number is not on record here.

Consider `Cn1c(-c2cccc([N+](=O)[O-])c2)[n+](C)c2ccccc21`, for which the GI50 with UACC-62, in the test on UO-31, with HOP-62, in the test with DU-145, with MDA-MB-435 and in the test on SNB-19 was > 100 µM (inactive) throughout. The GI50 in the test with OVCAR-3 is 30.8 µM (inactive); in the test on HOP-92 it was > 100 µM (inactive); with SNB-75, > 100 µM (inactive); in the test on Hs-578T it was > 100 µM (inactive); in the test with RXF 393, > 100 µM (inactive); with EKVX, > 100 µM (inactive). The GI50 with CCRF-CEM was > 100 µM (inactive); in the test on SK-OV-3 it was > 100 µM (inactive); in the test on SK-MEL-28 it was > 100 µM (inactive); with MDA-MB-231, > 100 µM (inactive); with ACHN it was 41.6 µM (inactive); in the test with COLO 205 it was 17.7 µM (inactive). In addition, the GI50 with 786-0 is > 100 µM (inactive); in the test on PC-3 it was 46.8 µM (inactive).

For `CC[C@H]1C=CCC[C@@]2(C[C@@H]3CC[C@@H]4[C@H](C(=O)OCCCCCCCCCCCCCCCC(=O)N(CCCN)CCCCN)[C@]5(CCC[C@@H](C)O5)NC(=[N+]34)N2)O1`, the GI50 in the test with UACC-62 is 0.0185 µM (active); in the test with UO-31, 0.0519 µM (active); with HOP-62, 0.0415 µM (active); in the test on DU-145 it was 0.348 µM (active); in the test with MDA-MB-435, < 0.01 µM (active); in the test with SNB-19, 0.381 µM (active). In addition, the GI50 with OVCAR-3 was 0.0738 µM (active); in the test with HOP-92, 0.0224 µM (active); in the test with SNB-75, 0.0533 µM (active); with Hs-578T, 0.0875 µM (active); in the test on RXF 393, 0.071 µM (active); in the test on EKVX, 0.11 µM (active). The GI50 is 0.0151 µM (active) with CCRF-CEM; 0.136 µM (active) with SK-OV-3; 0.233 µM (active) with SK-MEL-28; 0.275 µM (active) in the test with MDA-MB-231; 0.0826 µM (active) in the test with ACHN; 0.0336 µM (active) with COLO 205. For the same molecule, the values for the GI50 in the test on 786-0 and in the test with PC-3 were 0.0229 µM (active) and 0.0428 µM (active), respectively.

On to `O=S1(=O)CS(=O)(=O)OCCO1`, for which the GI50 with UACC-62 is 6.43 µM (inactive); in the test on UO-31, 61 µM (inactive); with HOP-62 it was 12.4 µM (inactive); with DU-145, 51.1 µM (inactive); in the test with MDA-MB-435, 44.2 µM (inactive); in the test with SNB-19, 31.7 µM (inactive). For the same molecule, the GI50 in the test on OVCAR-3 was 40.3 µM (inactive); in the test on HOP-92, 31.2 µM (inactive); in the test with SNB-75 it was 14 µM (inactive); in the test with Hs-578T, 54.3 µM (inactive); in the test with RXF 393, 41.6 µM (inactive); with EKVX it was 81.8 µM (inactive). Further, the GI50 in the test on CCRF-CEM was 18.5 µM (inactive); in the test on SK-OV-3, 28.5 µM (inactive); with SK-MEL-28, 69 µM (inactive); with MDA-MB-231, 128 µM (inactive); in the test with ACHN, 15.3 µM (inactive); with COLO 205, 46.6 µM (inactive). Besides, the GI50 in the test with 786-0 is 10.9 µM (inactive); with PC-3 it was 82 µM (inactive).

`CCN(CC)c1ccc(/C=C2/C[N+](C)(C)C/C(=C/c3ccc(N(CC)CC)cc3)C2=O)cc1`: the GI50 with UACC-62 was 2.01 µM (inactive); with UO-31 it was > 58.9 µM (inactive); with HOP-62, 5.55 µM (inactive); in the test with DU-145, 6.05 µM (inactive); in the test on MDA-MB-435, 1.67 µM (inactive); with SNB-19, 3.19 µM (inactive). The GI50 in the test on OVCAR-3 is 2.12 µM (inactive); in the test on HOP-92, 0.813 µM (active); with SNB-75, 1.62 µM (inactive); in the test with Hs-578T, 2.47 µM (inactive); in the test with RXF 393, 2.77 µM (inactive); with EKVX, 5.96 µM (inactive). The GI50 in the test on CCRF-CEM was 1.03 µM (active); in the test on SK-OV-3, 9.29 µM (inactive); with SK-MEL-28, 1.82 µM (inactive); in the test on MDA-MB-231, 2.58 µM (inactive); in the test with ACHN, 32 µM (inactive); with COLO 205, 1.29 µM (inactive). For the same molecule, the GI50 in the test with 786-0 was 3.12 µM (inactive); with PC-3, 3.05 µM (inactive).

As to `CN(C)c1ccc(C2CC(=O)CC(c3ccc(N(C)C)cc3)C23C(=O)NC(=S)NC3=O)cc1` (stereo not given), the GI50 in the test on UACC-62 was > 100 µM (inactive); in the test on UO-31 it was > 100 µM (inactive); in the test with HOP-62, 18 µM (inactive); in the test on DU-145, > 100 µM (inactive); in the test with MDA-MB-435, > 100 µM (inactive); in the test with SNB-19, 71.3 µM (inactive). For the same molecule, the GI50 was > 100 µM (inactive) with OVCAR-3; > 100 µM (inactive) in the test on HOP-92; 14.6 µM (inactive) in the test on SNB-75; 30.2 µM (inactive) in the test with Hs-578T; 45.7 µM (inactive) in the test with RXF 393; 55.5 µM (inactive) in the test on EKVX. The GI50 in the test on CCRF-CEM is > 100 µM (inactive); in the test with SK-OV-3, > 100 µM (inactive); in the test on SK-MEL-28, > 100 µM (inactive); in the test on MDA-MB-231 it was 36 µM (inactive); with ACHN, > 100 µM (inactive); in the test on COLO 205, > 100 µM (inactive). The GI50 is 54.6 µM (inactive) in the test on 786-0 and > 100 µM (inactive) in the test on PC-3.

As to `COc1cc2c(cc1O)CC1c3c(cc(O)c(OC)c3-2)CCN1C` (stereo not given), the GI50 in the test on UACC-62, with UO-31, in the test on HOP-62, in the test on DU-145, with MDA-MB-435 and in the test on SNB-19 was > 100 µM (inactive) in each case. The GI50 in the test with OVCAR-3 was 98.9 µM (inactive); in the test on HOP-92, > 78.3 µM (inactive); with SNB-75, 81.1 µM (inactive); with Hs-578T, > 100 µM (inactive); in the test on RXF 393 it was > 100 µM (inactive); in the test with EKVX it was > 100 µM (inactive). For the same molecule, the GI50 in the test on CCRF-CEM was > 100 µM (inactive); in the test with SK-OV-3, > 100 µM (inactive); in the test on SK-MEL-28, > 100 µM (inactive); with MDA-MB-231, > 100 µM (inactive); in the test with ACHN, > 100 µM (inactive); with COLO 205, > 73.5 µM (inactive). For the same molecule, the results for the GI50 with 786-0 and in the test on PC-3 were > 100 µM (inactive) and > 96.6 µM (inactive), respectively.
